In patent US9504690B2, “Tetracyclic xanthene derivatives and methods of use thereof for the treatment of viral diseases” (Merck Sharp & Dohme Corp., priority 2011, dated 2016):

How the values were obtained:
HCV replicon 3a WT = assay: Cell-based HCV replicon assay, 3a WT; conditions: Hepatitis C virus, 72 h; replicon cells, harvested day 3, replicon RNA by real time PCR (Taqman)
Experimental: (§1) To measure cell-based anti-HCV activity of selected compounds of the present invention, replicon cells were seeded at 5000 cells/well in 96-well collagen I-coated Nunc plates in the presence of the test compound. Various concentrations of test compound, typically in 10 serial 2-fold dilutions, were added to the assay mixture, with the starting concentration ranging from 250 μM to 1 μM. The final concentration of DMSO was 0.5%, fetal bovine serum was 5%, in the assay media. Cells were harvested on day 3 by the addition of 1× cell lysis buffer (Ambion cat #8721). The replicon RNA level was measured using real time PCR (Taqman assay). The amplicon was located in 5B. The PCR primers were: 5B.2F, ATGGACAGGCGCCCTGA (SEQ. ID. NO. 1); 5B.2R, […] (SEQ. ID. NO. 2); the probe sequence was FAM-labeled CACGCCATGCGCTGCGG (SEQ. ID. NO. 3). GAPDH RNA was used as endogenous control and was amplified in the same reaction as NS5B (multiplex PCR) using primers and VIC-labeled probe recommended by the manufacturer (PE Applied Biosystem). The real-time RT-PCR reactions were run on ABI PRISM 7900HT Sequence Detection System using the following program: 48° C. for 30 minutes, 95° C. for 10 minutes, 40 cycles of 95° C. for 15 sec, 60° C. for 1 minutes. The ΔCT values (CT5B-CTGAPDH) were plotted against the concentration of test compound and fitted to the sigmoid dose-response model using XLfit4 (MDL). […] Alternatively, to quantitate the absolute amount of replicon RNA, a standard curve was established by including serially diluted T7 transcripts of replicon RNA in the Taqman assay. All Taqman reagents were from PE Applied Biosystems. Such an assay procedure was described in detail in e.g. Malcolm et al., Antimicrobial Agents and Chemotherapy 50: 1013-1020 (2006).
(§2) HCV replicon assay data was calculated for selected compounds of the present invention using this method and is provided in the table below.

HCV replicon 2a WT = assay: Cell-based HCV replicon assay, 2a WT; conditions: Hepatitis C virus, 72 h; replicon cells, harvested day 3, replicon RNA by real time PCR (Taqman)
Experimental: as §1, §2

HCV replicon 1b WT = assay: Cell-based HCV replicon assay, 1b WT; conditions: Hepatitis C virus, 72 h; replicon cells, harvested day 3, replicon RNA by real time PCR (Taqman)
Experimental: as §1, §2

HCV replicon 1a WT = assay: Cell-based HCV replicon assay, 1a WT; conditions: Hepatitis C virus, 72 h; replicon cells, harvested day 3, replicon RNA by real time PCR (Taqman)
Experimental: as §1, §2

HCV replicon 4a WT = assay: Cell-based HCV replicon assay, 4a WT; conditions: Hepatitis C virus, 72 h; replicon cells, harvested day 3, replicon RNA by real time PCR (Taqman)
Experimental: as §1, §2

HCV replicon 1a Y93H = assay: Cell-based HCV replicon assay, 1a Y93H; conditions: Hepatitis C virus, 72 h, read-out: Replicon EC50 1a Y93H
Experimental: as §1, §2

HCV replicon 2b WT = assay: Cell-based HCV replicon assay, 2b WT; conditions: Hepatitis C virus, 72 h; replicon cells, harvested day 3, replicon RNA by real time PCR (Taqman)
Experimental: as §1, §2

## COC(=O)N[C@H](C(=O)N1CCC[C@H]1c1ncc(-c2ccc3c(c2)Oc2ccc(-c4cnc([C@@H]5CCCN5C(=O)[C@@H](NC(=O)OC)C(C)(C)C)[nH]4)c4ccn-3c24)[nH]1)C(C)(C)C [Compound 2, Methyl [(2S)-1-{(2S)-2-[5-(3-(2-[(2S)-1-(2S)-2-[(methoxycarbonyl)amino]-3,3-di-methylbutanoyl}pyrrolidin-2-yl]-1H-imidazol-5-ylpyrrolo[3,2,1-kl]phenoxazin-8-yl)-1H-imidazol-2-yl]pyrrolidin-1-yl)-3,3-dimethyl-1-oxobutan-2-yl]carbamate]
HCV replicon 3a WT
  EC50: 1.26 nM
HCV replicon 2a WT
  EC50: 0.018 nM
HCV replicon 1b WT
  EC50: 0.00443 nM
HCV replicon 1a WT
  EC50: 0.0736 nM
HCV replicon 4a WT
  EC50: 4.91 nM
HCV replicon 1a Y93H
  EC50: 454 nM

## COC(=O)N[C@@H](C(=O)N1CCC[C@H]1c1ncc(-c2ccc3c(c2)Oc2ccc(-c4cnc([C@@H]5CCCN5C(=O)[C@H](NC(=O)OC)c5ccccc5)[nH]4)c4ccn-3c24)[nH]1)c1ccccc1 [Compound 3, Dimethyl (pyrrolo[3,2,1-kl]phenoxazine-3,8-diylbis{1H-imidazole-5,2-diyl(2S)pyrrolidine-2,1-diyl[(1R)-2-oxo-1-phenylethane-2,1-diyl]})biscarbamate]
HCV replicon 3a WT
  EC50: 0.019 nM
HCV replicon 2a WT
  EC50: 0.006 nM
HCV replicon 1b WT
  EC50: 0.007 nM
HCV replicon 1a WT
  EC50: 0.097 nM
HCV replicon 4a WT
  EC50: 0.04 nM
HCV replicon 1a Y93H
  EC50: 348 nM

## COC(=O)N[C@H](C(=O)N1CCC[C@H]1c1ncc(-c2ccc3c(c2)Oc2ccc(-c4cnc([C@@H]5CCCN5C(=O)[C@@H](NC(=O)OC)C5CC5)[nH]4)c4ccn-3c24)[nH]1)C1CC1 [Compound 4, Dimethyl (pyrrolo[3,2,1-kl]phenoxazine-3,8-diylbis{1H-imidazole-5,2-diyl(2S)-pyrrolidine-2,1-diyl[(1S)-1-cyclopropyl-2-oxoethane-2,1-diyl]})biscarbamate]
HCV replicon 3a WT
  EC50: 1.9 nM
HCV replicon 2a WT
  EC50: 0.012 nM
HCV replicon 1b WT
  EC50: 0.006 nM
HCV replicon 1a WT
  EC50: 0.007 nM
HCV replicon 4a WT
  EC50: 3.12 nM
HCV replicon 1a Y93H
  EC50: 64.4 nM

## COC(=O)N[C@H](C(=O)N1CCC[C@H]1c1ncc(-c2ccc3c(c2)-n2ccc4c(-c5cnc([C@@H]6CCCN6C(=O)[C@@H](NC(=O)OC)C(C)C)[nH]5)ccc(c42)O3)[nH]1)C(C)C [Compound 5, Methyl [(2S)-1-{(2S)-2-[5-(3-{2-[(2S)-1-{(2S)-2-[(methoxycarbonyl)amino]-3-methyl-butanoyl}pyrrolidin-2-yl]-1H-imidazol-5-yl}pyrrolo[3,2,1-kl]phenoxazin-9-yl)-1H-imidazol-2-yl]pyrrolidin-1-yl}-3-methyl-1-oxobutan-2-yl]carbamate]
HCV replicon 2a WT
  EC50: 20 nM
HCV replicon 1b WT
  EC50: 19 nM
HCV replicon 1a WT
  EC50: > 26 nM

## COC(=O)N[C@H](C(=O)N1CCC[C@H]1c1ncc(-c2ccc3c(c2)Oc2cc(-c4cnc([C@@H]5CCCN5C(=O)[C@@H](NC(=O)OC)C(C)C)[nH]4)cc4c2N3CC4)[nH]1)C(C)C [Compound 7, Methyl [(2S)-1-{(2S)-2-[5-(4-{2-[(2S)-1-{(2S)-2-[(methoxycarbonyl)amino]-3-methylbutanoyl}pyrrolidin-2-yl]-1H-imidazol-5-yl}-1,2-dihydropyrrolo[3,2,1-kl]phenoxazin-8-yl)-1H-imidazol-2-yl]pyrrolidin-1-yl}-3-methyl-1-oxobutan-2-yl]carbamate]
HCV replicon 3a WT
  EC50: 1.1 nM
HCV replicon 2a WT
  EC50: 0.063 nM
HCV replicon 1b WT
  EC50: 0.044 nM
HCV replicon 1a WT
  EC50: 0.1 nM
HCV replicon 4a WT
  EC50: 1.05 nM
HCV replicon 1a Y93H
  EC50: 263 nM

## COC(=O)N[C@H](C(=O)N1CC(F)(F)C[C@H]1c1ncc(-c2ccc3c(c2)Oc2ccc(-c4cnc([C@@H]5CC(F)(F)CN5C(=O)[C@@H](NC(=O)OC)C(C)C)[nH]4)c4ccn-3c24)[nH]1)C(C)C [Compound 8, Methyl [(2S)-1-{(2S)-2-[5-(3-{2-[(2S)-4,4-difluoro-1-{(2S)-2-[(methoxycarbonyl)amino]-3-methylbutanoyl}pyrrolidin-2-yl]-1H-imidazol-5-yl}pyrrolo[3,2,1-kl]phenoxazin-8-yl)-1H-imidazol-2-yl]-4,4-difluoropyrrolidin-1-yl}-3-methyl-1-oxobutan-2-yl]carbamate]
HCV replicon 3a WT
  EC50: 0.31 nM
HCV replicon 1b WT
  EC50: 0.001 nM
HCV replicon 1a WT
  EC50: 0.004 nM
HCV replicon 4a WT
  EC50: 0.019 nM
HCV replicon 1a Y93H
  EC50: 11.5 nM

## COC(=O)N[C@H](C(=O)N1C[C@H](F)C[C@H]1c1ncc(-c2ccc3c(c2)Oc2ccc(-c4cnc([C@@H]5C[C@@H](F)CN5C(=O)[C@@H](NC(=O)OC)C(C)C)[nH]4)c4ccn-3c24)[nH]1)C(C)C [Compound 9, Methyl [(2S)-1-{(2S,4R)-4-fluoro-2-[5-(3-{2-[(2S,4R)-4-fluoro-1-{(2S)-2-[(methoxycarbonyl)amino]-3-methylbutanoyl}pyrrolidin-2-yl]-1H-imidazol-5-yl}pyrrolo[3,2,1-kl]phenoxazin-8-yl)-1H-imidazol-2-yl]pyrrolidin-1-yl}-3-methyl-1-oxobutan-2-yl]carbamate]
HCV replicon 3a WT
  EC50: 1.5 nM
HCV replicon 1b WT
  EC50: 0.005 nM
HCV replicon 1a WT
  EC50: 0.01 nM
HCV replicon 4a WT
  EC50: 0.1 nM
HCV replicon 1a Y93H
  EC50: 27.5 nM

## COC(=O)N[C@H](C(=O)N1CCC[C@H]1c1ncc(-c2ccc3c(c2)Oc2ccc(-c4cnc([C@@H]5CCCN5C(=O)[C@@H](NC(=O)OC)C(C)C)[nH]4)c4cnn-3c24)[nH]1)C(C)C [Compound 10, Methyl [(2S)-1-{(2S)-2-[5-(3-{2-[(2S)-1-{(2S)-2-[(methoxycarbonyl)amino]-3-methylbutanoyl}pyrrolidin-2-yl]-1H-imidazol-5-yl}pyrazolo[4,5,1-kl]phenoxazin-8-yl)-1 H-imidazol-2-yl]pyrrolidin-1-yl}-3-methyl-1-oxobutan-2-yl]carbamate]
HCV replicon 3a WT
  EC50: 0.69 nM
HCV replicon 2a WT
  EC50: 0.003 nM
HCV replicon 1b WT
  EC50: 0.005 nM
HCV replicon 1a WT
  EC50: 0.027 nM
HCV replicon 2b WT
  EC50: 49 nM
HCV replicon 4a WT
  EC50: 0.37 nM
HCV replicon 1a Y93H
  EC50: 35.1 nM

## COC(=O)N[C@H](C(=O)N1CCC[C@H]1c1ncc(-c2ccc3c(c2)Oc2cc(-c4cnc([C@@H]5CCCN5C(=O)[C@@H](NC(=O)OC)C(C)C)[nH]4)cc4c2N3CCC4)[nH]1)C(C)C [Compound 11, Methyl [(2S)-1-{(2S)-2-[5-(5-{2-[(2S)-1-{(2S)-2-[(methoxycarbonyl)amino]-3-methylbutanoyl}pyrrolidin-2-yl]-1H-imidazol-5-yl}-2,3-dihydro-1H-pyrido[3,2,1-kl]phenoxazin-9-yl)-1H-imidazol-2-yl]pyrrolidin-1-yl}-3-methy-1-oxobutan-2-yl]carbamate]
HCV replicon 3a WT
  EC50: 10 nM
HCV replicon 2a WT
  EC50: 0.345 nM
HCV replicon 1b WT
  EC50: 0.031 nM
HCV replicon 1a WT
  EC50: 0.1 nM
HCV replicon 4a WT
  EC50: 1.02 nM
HCV replicon 1a Y93H
  EC50: 504 nM

## COC(=O)N[C@H](C(=O)N1CCC[C@H]1c1ncc(-c2cc3c4c(c2)Oc2ccc(-c5cnc([C@@H]6CCCN6C(=O)[C@@H](NC(=O)OC)C(C)C)[nH]5)cc2N4CCC3)[nH]1)C(C)C [Compound 12, Methyl [(2S)-1-{(2S)-2-[5-(5-{2-[(2S)-1-{(2S)-2-[(methoxycarbonyl)amino]-3-methylbutanoyl}pyrrolidin-2-yl]-1H-imidazol-5-yl}-2,3-dihydro-1H-pyrido[3,2,1-kl]phenoxazin-10-yl)-1H-imidazol-2-yl]pyrrolidin-1-yl}-3-methyl-1-oxobutan-2-yl]carbamate]
HCV replicon 3a WT
  EC50: 0.375 nM
HCV replicon 2a WT
  EC50: 0.002 nM
HCV replicon 1b WT
  EC50: 0.003 nM
HCV replicon 1a WT
  EC50: 0.056 nM
HCV replicon 4a WT
  EC50: 0.13 nM
HCV replicon 1a Y93H
  EC50: 115 nM

## COC(=O)N[C@H](C(=O)N1CCC[C@H]1c1ncc(-c2cc3c4c(c2)Oc2ccc(-c5cnc([C@@H]6CCCN6C(=O)[C@@H](NC(=O)OC)C(C)C)[nH]5)cc2C4CO3)[nH]1)C(C)C (stereo partly drawn) [Compound 15, Methyl [(2S)-1-{(2S)-2-[5-(4-{2-[(2S)-1-{(2S)-2-[(methoxycarbonyl)amino]-3-methylbutanoyl}pyrrolidin-2-yl]-1H-imidazol-5-yl}-1,10b-dihydrofuro[2,3,4-kl]xanthen-9-yl)-1H-imidazol-2-yl]pyrrolidin-1-yl}-3-methyl-1-oxobutan-2-yl]carbamate]
HCV replicon 3a WT
  EC50: 0.52 nM
HCV replicon 1b WT
  EC50: 0.004 nM
HCV replicon 1a WT
  EC50: 0.06 nM
HCV replicon 4a WT
  EC50: 0.39 nM
HCV replicon 1a Y93H
  EC50: 83 nM

## COC(=O)N[C@H](C(=O)N1CC(F)(F)C[C@H]1c1ncc(-c2ccc3c(c2)Oc2ccc(-c4cnc([C@@H]5CC(F)(F)CN5C(=O)[C@@H](NC(=O)OC)C(C)C)[nH]4)c4c2N3CC4)[nH]1)C(C)C [Compound 18]
HCV replicon 3a WT
  EC50: 0.936 nM
HCV replicon 1b WT
  EC50: 0.002 nM
HCV replicon 1a WT
  EC50: 0.009 nM
HCV replicon 2b WT
  EC50: 40 nM
HCV replicon 4a WT
  EC50: 0.056 nM
HCV replicon 1a Y93H
  EC50: 32 nM

## COC(=O)N[C@H](C(=O)N1CC(F)(F)C[C@H]1c1ncc(-c2ccc3c(c2)Oc2ccc(-c4cnc([C@@H]5CC(F)(F)CN5C(=O)[C@@H](NC(=O)OC)C(C)C)[nH]4)c4c2N3CCC4)[nH]1)C(C)C [Compound 19]
HCV replicon 3a WT
  EC50: 10 nM
HCV replicon 2a WT
  EC50: 0.53 nM
HCV replicon 1b WT
  EC50: 0.003 nM
HCV replicon 1a WT
  EC50: 0.1 nM
HCV replicon 2b WT
  EC50: 122 nM
HCV replicon 4a WT
  EC50: 0.17 nM
